Measured values: US5391489A, “Proteolytic enzymes from hyperthermophilic bacteria and processes for their production” (Johns Hopkins University, priority 1993, dated 1995)
Like-named read-outs stand apart in the source and are kept apart here. Values belong to the molecule of their own block, whether it stands above or below them.

Legend:
[1] = system: purified SDS-resistant proteolytic enzyme preparation; assay: Inhibitor studies on purified SDS-resistant proteolytic enzyme preparation; assay type: biochemical, Pyrococcus furiosus; details: for inhibition: concentrations below 150 μM; for inhibition at point of complete saturation: reached at 400 μM
Protocol: FIG. 7. Effect of chelating inhibitors EDTA and EGTA on activity at 98° C. of purified SDS-resistant proteolytic enzyme preparation from Pyrococcus furiosus. Samples of purified enzyme preparation were assayed in the standard azocasein with the inhibitor concentrations indicated.
Determination of proteolytic activity was based on the cleavage of azocasein (Cowan, D. A., et al., 1987, Biochem, J. 247:121-133). Assay mixtures contained 900 μl of 0.1% azocasein in 0.05M sodium phosphate buffer (pH 7.3 at 100° C.), and 100 μl of sample. The reaction was terminated by the addition of 500 μl of 15% (w/v) trichloracetic acid, and the cooled on ice for 5 min. The precipitate formed was removed by centrifugation at 12,000×g for 3 min in a microcentrifuge. Color release as a result of proteolytic activity was detected by measuring the absorbance of the supernatant at 440 nm. […] A unit of activity is defined as the amount of protein which produces a change of 0.100 absorbance units at 440 nm for a 30 min. incubation at a given temperature. Total protein was measured using the BioRad assay kit.
(§1) Purified samples of the SDS-resistant protease were obtained by incubation of the cell-free extract for 24 hours in the presence of 1% SDS at 98° C. Extracts treated in this way were then dialyzed against 5 mM sodium phosphate buffer, pH 7.5 at 4° C. overnight and concentrated in a Pharmacia Omegacell Stirred Cell (nominal molecular weight limit of 10 kDa) to a concentration of 2-3 mg/ml protein measured by the Bio-Rad protein assay kit.

[2] = system: purified SDS-resistant proteolytic enzyme preparation; assay: Effects of solvents on purified SDS-resistant proteolytic enzyme preparation; assay type: biochemical, Pyrococcus furiosus
Protocol: (§2) Determination of proteolytic activity was based on the cleavage of azocasein (Cowan, D. A., et al., 1987, Biochem, J. 247:121-133). Assay mixtures contained 900 μl of 0.1% azocasein in 0.05M sodium phosphate buffer (pH 7.3 at 100° C.), and 100 μl of sample. The reaction was terminated by the addition of 500 μl of 15% (w/v) trichloracetic acid, and the cooled on ice for 5 min. The precipitate formed was removed by centrifugation at 12,000×g for 3 min in a microcentrifuge. Color release as a result of proteolytic activity was detected by measuring the absorbance of the supernatant at 440 nm. Linear response of the assay was obtained between 0.010 and 0.100 absorbance units. A unit of activity is defined as the amount of protein which produces a change of 0.100 absorbance units at 440 nm for a 30 min. incubation at a given temperature. Total protein was measured using the BioRad assay kit.
as §1

[3] = system: purified SDS-resistant proteolytic enzyme preparation; assay: Effect of denaturing agents on activity of the purified protease (standard azocasein assay); assay type: biochemical, Pyrococcus furiosus; details: for percentage of original activity: standard assay conditions; for loss of proteolytic activity: 1 molar, at 98° C. for at least 30 minutes
Protocol: Several denaturing agents were added to azocasein, both in the presence and absence of the protease, to control of possible degradation of the substrate in the presence of the agents. […] Thus, high concentrations of urea and guanidinium chloride led to significant abiotic hydrolysis of azocasein such that results were difficult to interpret. The increases in relative activity above 100% are likely the result of the denaturing agents acting to make the azocasein substrate more susceptible to enzymatic hydrolysis.
as §2, §1

[4] = Hydrolysis of synthetic substrate benzoyl-L-arginine ethyl ester; assay type: biochemical; details: at 60° C.
Protocol: (§3) For tests on the substrate specificity of the purified SDS-resistant preparation, benzoyl-L-arginine ethyl ester, benzoyl-DL-arginine p-nitroanilide, serum thymic factor, angiotensin I, and trypsin were obtained from Sigma. Assays of benzoyl-L-arginine ethyl ester and benzoyl-arginine p-nitroanilide were performed as described previously (Schwert, G. W. et al., 1955, Biochem. Biophys. Acta 16:570-575; Erlanger, B. F., et al., 1961, Arch. Biochem. Biophys. 95:271-278) with a change in buffers to 50 mM sodium phosphate buffer, pH 7.5, and a substrate preincubation of two minutes at standard assay temperature.

[5] = Hydrolysis of synthetic substrate benzoyl DL-arginine p-nitroanilide; assay type: biochemical; details: at 60° C.
Protocol: as §3

angiotensin I = assay: Hydrolysis of peptide angiotensin I (reverse phase separation of products); assay type: biochemical; details: after two hours at 40° C.
Protocol: FIG. 8. Comparison of hydrolysis products of angiotensin I polypeptide by trypsin and purified SDS-resistant proteolytic enzyme preparation ("Pyrolysin") showing similarity of cleavage except for one additional cleavage by the novel enzyme preparation.
A chromatogram of the cleavage products of angiotensin I after exposure to the purified P. furiosus protease and to trypsin is shown in FIG. 8.
Hydrolysis of peptides was conducted with a modification of a procedure described by Cowan et al., 1987, Biochem. J. 247:121-133). The peptides serum thymic factor and angiotensin I were incubated with the protease from P. furiosus for fifteen and sixty minutes at 98° C., and two hours with trypsin at 40° C. End products were separated by reverse phase chromatography on a Waters high-performance liquid chromatography system using a WISP auto injector and μ-Bondapak C18 with a linear gradient of acetonitrile and water, with 0.1% trifluoroacetic acid in both phases. Peaks from the reverse phase column were dried down in a Savant Speed-Vac and analyzed by Waters Pico-Tag amino acid analysis.

Molecule: O=C(O)c1cc[c]([Hg][Cl])cc1 [p-chloromercuribenzoate]
% inhibition ([1]; 10 mM inhibitor): 40%

Molecule: CC#N [Acetonitrile]
% Activity ([2]; 20% (v/v) solvent): 77%
% Activity ([2]; 50% (v/v) solvent): 71%
% Activity ([2]; 70% (v/v) solvent): 39%

Molecule: O=C(O)CI [iodoacetic acid]
% inhibition [1]: 0%

Molecule: CN(C)C=O [Dimethylformamide]
% Activity ([2]; 10% (v/v) solvent): 80%
% Activity ([2]; 50% (v/v) solvent): 13%
% Activity ([2]; 100% solvent): 25%

Molecule: O=S(=O)(F)Cc1ccccc1 [phenyl methylsulfonyl fluoride]
% inhibition ([1]; 10 mM inhibitor): 0%

B1: trypsin (protein, UniProt P00760 24-246, looked up)
Serine protease 1: IVGGYTCGANTVPYQVSLNSGYHFCGGSLINSQWVVSAAHCYKSGIQVRLGEDNINVVEGNEQFISASKSIVHPSYNSNTLNNDIMLIKLKSAASLNSRVASISLPTSCASAGTQCLISGWGNTKSSGTSYPDVLKCLKAPILSDSSCKSAYPGQITSNMFCAGYLEGGKDSCQGDSGGPVVCSGKLQGIVSWGSGCAQKNKPGVYTKVCNYVSWIKQTIASN
notes: comparison protease obtained from Sigma
hydrolysis of substrate [4]: effective
hydrolysis of substrate [5]: effective
remaining uncleaved peptide (angiotensin I): still a portion of uncleaved angiotensin I

Continued, values first:

% inhibition ([1]; 100 μM inhibitor): 7.8%
% inhibition ([1]; 500 μM inhibitor): 51%
% inhibition ([1]; 10 mM inhibitor): 49%
inhibition [1]: no inhibition
inhibition at point of complete saturation [1]: about 50%
Molecule: O=C(O)CN(CCOCCOCCN(CC(=O)O)CC(=O)O)CC(=O)O [EGTA, [Ethylenebis(oxyethylenenitrilo)]tetraacetic acid]

% inhibition ([1]; 100 μM inhibitor): 7.8%
% inhibition ([1]; 500 μM inhibitor): 51%
% inhibition ([1]; 10 mM inhibitor): 49%
inhibition [1]: no inhibition
inhibition at point of complete saturation [1]: about 50%
Molecule: O=C(O)CN(CCN(CC(=O)O)CC(=O)O)CC(=O)O [EDTA]

percentage of original activity ([3]; 1M denaturant): 256%
loss of proteolytic activity [3]: no loss of proteolytic activity
percentage of original activity ([3]; 2M denaturant): 299%
Molecule: N=C(N)N [guanidinium chloride]

percentage of original activity ([3]; 10 mM): 39.5%
Molecule: O[C@H](CS)[C@H](O)CS (racemic) [dithiothreitol]

loss of proteolytic activity [3]: no loss of proteolytic activity
percentage of original activity ([3]; 2M denaturant): 124%
percentage of original activity ([3]; 4M denaturant): 138%
Molecule: NC(N)=O [urea]

percentage of original activity ([3]; 150 mM): 57%
Molecule: OCCS [β-mecaptoethanol]
